# System: 301 cancer cell lines from different tumor types (OncoPanel; HD Biosciences)
# Test: 2D cell viability inhibition assay (CellTiter-Glo) in cancer cell line panel
# Type: cell-based
# Design: key to AUC: AUC as fraction of the no-inhibition area (dose range × 0–100 % of control)
# Conditions: for Emax: in %
# Experimental: In a larger screening study, compound 1 was evaluated across a broad cancer cell line panel (OncoPanel; HD Biosciences) composed of 301 cancer cell lines from different tumor types.
# 2D cell viability inhibition assays were performed in multiwell plates seeded with cells from the panel. After seeding, the plates were cultured overnight in a humidified incubator at 37° C. to promote adherence. Assays were initiated in individual wells by adding either DMSO as a vehicle control, growth media as a blank, or serially diluted compound 1 (10 μM to 0.0005 μM with 1:3 serial dilution). Cultures were incubated for 168 hours after which the number of viable cells in each test well was assessed using the CellTiter-Glo® Luminescent Cell Viability Assay. Luminescence readouts were performed using an EnVision® Multilabel Reader and the compound 1 readouts were normalized to the DMSO control readouts, expressed as a percent of the control. Outliers were flagged out by visual inspection. Percent of control was plotted against the corresponding compound 1 concentration and the absolute IC50 value was determined using four-parameter logistic non-linear regression as the concentration where inhibition was 50% of the control. For maximum inhibition <50%, the absolute IC50 was reported as >10. In addition to EC50 and IC50, AUC was determined and was normalized to the area corresponding to theoretical no-inhibition (the rectangular area defined by the compound dose range and 0 to 100 in y). Emax was recorded as the minimum in y with the compound dose range. For those cell lines where Emax>40, EC50 was manually set to 10 μM. A hierarchical clustering algorithm based on Euclidean distance between the standardized input values and “Ward.D” method as implemented in R hclust function was used to visualize the compound 1 cellular potency data. The sensitive/moderate/resistant calls for each cell line was determined by visually inspecting the resulting clustering dendrogram. All the analyses were done in R Core Team.
# [1] = Homo sapiens, TE-5, TE5 cell line
# [2] = Homo sapiens, TE-6, TE6 cell line
# [3] = Homo sapiens, TE-9, TE9 cell line
# [4] = Homo sapiens, TE-10, TE10 cell line
# [5] = Homo sapiens, TE-11, TE11 cell line
# [6] = Homo sapiens, TF-1, TF1 cell line
# [7] = Homo sapiens, THP-1, THP1 cell line
# [8] = Homo sapiens, TOV112D, TOV112D cell line
# [9] = Homo sapiens, TT, T.T cell line
# [10] = Homo sapiens, U2OS, U2OS cell line
# [11] = Homo sapiens, U-87 MG, U87MG cell line
# [12] = Homo sapiens, U-937, U937 cell line
# [13] = Homo sapiens, UMUC3, UMUC3 cell line
# [14] = Homo sapiens, WM 266-4, WM2664 cell line
# [15] = Homo sapiens, WM-115, WM115 cell line
# [16] = Homo sapiens, WSUDLCL2, WSUDLCL2 cell line
smiles,measurement,setting,value
"CC(C)c1ccc(N(C)c2ccc3c(c2)OCC[C@H]3CNc2cnccc2C(=O)O)cc1 [Compound 1, 3-({[(4R)-7-{methyl[4-(propan-2-yl)phenyl]amino}-3,4-dihydro-2H-1-benzopyran-4-yl]methyl}amino)pyridine-4-carboxylic acid]",IC50,"Homo sapiens, TALL-1, TALL1 cell line",1.8 nM
same,EC50,[1],6.64 nM
same,IC50,[1],8.47 nM
same,EC50,[2],4.83 nM
same,IC50,[2],6.68 nM
same,EC50,[3],3.75 nM
same,IC50,[3],6.89 nM
same,EC50,[4],9.3 nM
same,IC50,[4],16.3 nM
same,EC50,[5],3.85 nM
same,IC50,[5],4.28 nM
same,IC50,"Homo sapiens, TE-15, 168 h, TE15, oesophagus, squamous cell carcinoma, 168 hours",> 10000 nM
same,EC50,[6],1.58 nM
same,IC50,[6],2.59 nM
same,EC50,[7],4.92 nM
same,IC50,[7],6.15 nM
same,EC50,[8],4.26 nM
same,IC50,[8],6.23 nM
same,EC50,[9],4.37 nM
same,IC50,[9],6.75 nM
same,EC50,[10],7.71 nM
same,IC50,[10],9.01 nM
same,EC50,[11],≥ 10000 nM
same,IC50,[11],14.7 nM
same,EC50,[12],2.73 nM
same,IC50,[12],2.55 nM
same,IC50,"Homo sapiens, UACC-812, 168 h, UACC812, breast, ductal carcinoma, 168 hours",> 10000 nM
same,EC50,[13],21.9 nM
same,IC50,[13],39.5 nM
same,IC50,"Homo sapiens, VCaP, 168 h, prostate, adenocarcinoma",> 10000 nM
same,EC50,[14],≥ 10000 nM
same,IC50,[14],27.5 nM
same,EC50,[15],2.5 nM
same,IC50,[15],478 nM
same,EC50,[16],4.21 nM
same,IC50,[16],5.67 nM
same,AUC,J82 cell line,0.6749
same,AUC,JEKO1 cell line,0.1172
same,AUC,JIMT1 cell line,0.5519
same,AUC,JURKAT cell line,0.1171
same,Emax,JURKAT cell line,0.212
same,AUC,K562 cell line,0.275
same,AUC,KALS1 cell line,0.6559
same,AUC,KARPAS422 cell line,0.329
same,Emax,KARPAS422 cell line,8.084
same,AUC,"KASUMI1, haematopoietic and lymphoid tissue, acute myeloid leukaemia, 168 hours",0.8823
same,AUC,KATOIII cell line,0.49
same,AUC,"KG1, haematopoietic and lymphoid tissue, acute myeloid leukaemia, 168 hours",0.9592
same,AUC,KM12 cell line,0.3482
same,Emax,KM12 cell line,12.24
same,AUC,KMS11 cell line,0.3918
same,Emax,KMS11 cell line,9.983
same,AUC,KNS62 cell line,0.4761
same,Emax,KNS62 cell line,18.84
same,AUC,KNS81 cell line,0.6309
same,IC50,KNS81 cell line,> 10000 nM
same,AUC,KU1919 cell line,0.3956
same,Emax,KU1919 cell line,14.57
same,AUC,"KURAMOCHI, ovary, undifferentiated carcinoma, 168 hours",0.8742
same,AUC,KYSE30 cell line,0.4434
same,Emax,KYSE30 cell line,38.59
same,AUC,"KYSE70, oesophagus, squamous cell carcinoma, 168 hours",0.6942
same,AUC,KYSE150 cell line,0.3052
same,AUC,KYSE270 cell line,0.3062
same,AUC,KYSE410 cell line,0.4156
same,Emax,KYSE410 cell line,21.4639
same,AUC,KYSE510 cell line,0.1998
same,AUC,LNCAP cell line,0.3974
same,AUC,LOUCY cell line,0.188
same,EC50,LOUCY cell line,2.47 nM
same,IC50,LOUCY cell line,2.47 nM
same,AUC,LOVO cell line,0.6362
same,AUC,LS411N cell line,0.3851
same,Emax,LS411N cell line,6.415
same,AUC,LU65 cell line,0.4091
same,Emax,LU65 cell line,12
same,AUC,"LU99, lung, large cell carcinoma, 168 hours",0.79
same,AUC,LUDLU1 cell line,0.5307
same,EC50,"LUDLU-1, LUDLU1 cell line",12.6 nM
same,IC50,"LUDLU-1, LUDLU1 cell line",25.8 nM
same,AUC,"MALME3M, skin, NS, 168 hours",0.9867
same,AUC,MC116 cell line,0.2527
same,AUC,MCF7 cell line,0.6592
same,AUC,"MDAMB157, breast, ductal carcinoma, 168 hours",0.8362
same,AUC,"MDAMB175VII, breast, ductal carcinoma, 168 hours",0.7385
same,AUC,"MDAMB231, breast, NS, 168 hours",0.7262
same,AUC,"MDAMB361, breast, NS, 168 hours",1.117
same,AUC,"MDAMB415, breast, NS, 168 hours",0.9413
same,AUC,"MDAMB436, breast, NS, 168 hours",0.8438
same,AUC,MDAMB453 cell line,0.4524
same,Emax,MDAMB453 cell line,21.95
same,AUC,"MDAMB468, breast, NS, 168 hours",0.6972
same,AUC,MESSA cell line,0.4933
same,Emax,MESSA cell line,24.22
same,AUC,"MEWO, skin, NS, 168 hours",0.7237
same,AUC,MIAPACA2 cell line,0.3322
same,Emax,MIAPACA2 cell line,9.711
same,AUC,MKN1 cell line,0.3945
same,AUC,MKN45 cell line,0.4427
same,Emax,MKN45 cell line,19.77
same,AUC,MOLT4 cell line,0.1376
same,Emax,MOLT4 cell line,0.6048
same,AUC,MPP89 cell line,0.6384
same,IC50,MPP89 cell line,> 10000 nM
same,AUC,MV411 cell line,0.2163
same,AUC,NAMALWA cell line,0.2431
same,EC50,NAMALWA cell line,3.27 nM
same,IC50,NAMALWA cell line,3.21 nM
same,IC50,"NCI-H1435, 168 h, NCIH1435, lung, non-small cell carcinoma, 168 hours",> 10000 nM
same,EC50,"NCI-H2023, NCIH2023 cell line",2.84 nM
same,IC50,"NCI-H2023, NCIH2023 cell line",3.03 nM
same,EC50,"NCI-H2172, NCIH2172 cell line",≥ 10000 nM
same,IC50,"NCI-H2172, NCIH2172 cell line",133 nM
